Results on 19 compounds are retold here after the SangsterLogP compilation.

Each structure is given as a SMILES string.

The nature of data set [1]: method code SF-AS, from DOI: 10.1007/s11095-005-4582-3, PMID: 15948031.

`CC(=O)c1cc(=S)ss1` had a logP of 2.18. Same read-out and setting: then `O=Cc1ssc(=O)c1-c1ccccc1`, with 2.94. `CCc1c(C=O)ssc1=O`: in data set [1], the log partition coefficient (logP) was determined as 2.58. Compound `CC(=O)c1ssc(=O)c1C` registered a log partition coefficient (logP) of 1.58. Same read-out and setting: in the case of `Cc1c(C=O)ssc1=S` it was 2.87. `Cc1c(C=O)ssc1=O`: the logP in data set [1] is 1.62. Take `O=Cc1cc(=S)ss1`: the logP was determined as 2.53.

Take `CC(=O)c1ssc(=S)c1-c1ccccc1`: the logP was found to be 3.31. `O=Cc1ssc(=S)c1-c1ccccc1` displayed a lipophilicity (logP) in data set [1] of 3.43.

Take `CCc1c(C(C)=O)ssc1=S`: the lipophilicity (logP) came out at 3.21. Still for that read-out and setting: in the case of `COc1c(C=O)ssc1=O` it was 1.83.

Consider `O=Cc1ssc(=S)c1Cl`, for which the logP in data set [1] is 2.95. With `COc1c(C=O)ssc1=S`, in data set [1], the logP was found to be 2.56.

The compound `O=Cc1ssc(=O)c1Cl` gave a lipophilicity (logP) in data set [1] of 2.16. As for `CC(=O)c1ssc(=O)c1-c1ccccc1`, the lipophilicity (logP) was 2.5. In turn, `CCc1c(C=O)ssc1=S` gave a lipophilicity (logP) in data set [1] of 3.15. `O=Cc1cc(=O)ss1` registered a lipophilicity (logP) of 1.81. In turn, `CC(=O)c1cc(=O)ss1` came in with a logP of 1.14. With `CCc1c(C(C)=O)ssc1=O`, the lipophilicity (logP) was 2.12.
